Patent publication US20090069241A1, “Compositions and Methods for Use of Pigment Epithelial Derived Factor (PEDF) Peptide Fragments” (Yale University, priority 2006, published 2009)

What was measured:
Format in all cases: in vivo, C57/B16 mice
[1] = tested on: Erk; experiment: Western blot of phosphorylated Erk in retinas after ischemic injury; conditions: 48 hours after ischemic injury; control retinas: not detected at 48 hours
Description: (§1) Induction of transient retinal ischemia in C57/B16 mice: Animal experiments were conducted in accordance with ARVO guidelines and were approved by the Animal Care and Use Committee of Yale University School of Medicine. Transient retinal ischemia was induced in one eye and the contralateral eye served as control. During the operation and recovery period, animals were placed on water heating pads at 37° C. Eighty-one 10-14 weeks male C57/B16 mice (Charles River Laboratories, Wilmington, Mass., weighing […]) were used in this experiment. To induce retinal ischemia, a previously established technique with some modifications was used (Hughes, 1991, Exp Eye Res. 53(5):573-582; Buchi et al., 1991, Opthalmologica 203 (3): 138-147). Briefly, animals were anesthetized by i.p. injection of a mixture of 100 mg/kg Ketamine+10 mg/kg Xylazine. […]
(§2) The effect of PEDF82-121 on STAT3 and Erk after ischemic injury was examined by Western blot. In control retinas subjected to ischemic injury, phosphorylated STAT3 was detected at 24 hours but not at 1 hour, 4 hours, 12 hours or 48 hours after ischemic injury. […] In control retinas, phosphorylated Erk was detect strongly at 4 hours and 12 hours after ischemic injury but was barely detectable at 24 hours and not detected at 48 hours. […]

[2] = tested on: GFAP; experiment: GFAP immunocytochemical labeling of Müller glial cells after transient ischemia
Description: (§3) Induction of transient retinal ischemia in C57/B16 mice: Animal experiments were conducted in accordance with ARVO guidelines and were approved by the Animal Care and Use Committee of Yale University School of Medicine. Transient retinal ischemia was induced in one eye and the contralateral eye served as control. During the operation and recovery period, animals were placed on water heating pads at 37° C. Eighty-one 10-14 weeks male C57/B16 mice (Charles River Laboratories, Wilmington, Mass., weighing 25-358) were used in this experiment. To induce retinal ischemia, a previously established technique with some modifications was used (Hughes, 1991, Exp Eye Res. 53(5):573-582; Buchi et al., 1991, Opthalmologica 203 (3): 138-147). Briefly, animals were anesthetized by i.p. injection of a mixture of 100 mg/kg Ketamine+10 mg/kg Xylazine. The corneas were topically anesthetized with 0.5% proparacaine hydrochloride (Bausch & Lomb Pharmaceuticals, Inc., Tampa, Fla.), and the pupils dilated with 2.5% phenylephrine (Bausch & Lomb Pharmaceuticals, Inc., Tampa, Fla.). The anterior chambers were cannulated in fully anesthetized animals with a 30-gauge infusion needle connected by PE10 polyethylene tubing and IV set to a physiological saline reservoir. The intraocular pressure (IOP) of the cannulated eye was raised to 120 mmHg for 60 minutes by elevating the saline reservoir. Retinal ischemia was confirmed by direct microscopic observation of whitening of the fundus. The reperfusion was confirmed visually when needle was withdrawn from the anterior chamber. One group of animals was treated with Vetropolycin® ophthalmic ointment (Pharmaderm, Melville, N. Y.) on the ischemic eyes and allowed to recover for 24 hours, 48 hours, 7 days and 14 days before sacrifice. Other groups were kept for intravitreous injections of the PEDF and PEDF peptides.
Intravitreous injection of PEDF, PEDF peptides and encapsulated PEDF peptide: One group of animals remained uninjected to monitor ischemic damage. All other groups received intravitreal injections, which were performed under an ophthalmic microscope. Experimental groups received 1 μl native PEDF protein (1 μg/μl), PEDF82-121 peptide (1 μg/μl), PEDF76-95 peptide (1 μg/μl), PEDF91-110 peptide (1 μg/μl), PEDF106-125 peptide (1 μg/μl) or PLGA PEDF82-121 nanospheres (0.1 mg/μl, less than 1.6 μg PEDF82-121 peptide when fully released) immediately after the end of the transient ischemia. Intravitreous injection was performed with 30-gauge beveled needle attached to PE10 polyethylene tubing and a 10 μl syringe (Hamilton, Reno, Nev.). The injections were performed through the sclera, approximately 1 mm behind the limbus. The needle remained in the vitreous cavity for 30 seconds after injection then gently withdrawn. […]

[3] = tested on: STAT3; experiment: Western blot of phosphorylated STAT3 in retinas after ischemic injury; conditions: 48 hours after ischemic injury; control retinas: detected only at 24 hours
Description: as §1, §2

[4] = tested on: inner retina (INL, IPL, retinal ganglion cell layer); experiment: Transient retinal ischemia-reperfusion injury with intravitreous injection; morphometric analysis of inner retina; set-up: thickness of the INL compared with non-ischemia control / thickness of the IPL compared with non-ischemia control / surviving cells in the RGC layer compared with non-ischemia control: concentration or dose not given beside the values; conditions: for surviving cells in the RGC layer compared with non-ischemia control / thickness of the INL compared with non-ischemia control / thickness of the IPL compared with non-ischemia control: single intravitreous injection immediately after ischemia
Description: as §3, with “Eighty-one 10-14 weeks male C57/B16 mice (Charles River Laboratories, Wilmington, Mass., weighing 25-358) were used in this experiment. To induce retinal ischemia, a previously established technique with some modifications was used (Hughes, 1991, Exp Eye Res. 53(5):573-582; Buchi et al., 1991, Opthalmologica 203 (3): 138-147).” left out, “The corneas were topically anesthetized with 0.5% proparacaine hydrochloride (Bausch & Lomb Pharmaceuticals, Inc., Tampa, Fla.), and the pupils dilated with 2.5% phenylephrine (Bausch & Lomb Pharmaceuticals, Inc., Tampa, Fla.).” left out
Intravitreous injection of PEDF, PEDF peptides and encapsulated PEDF peptide: One group of animals remained uninjected to monitor ischemic damage. All other groups received intravitreal injections, which were performed under an ophthalmic microscope. […] Intravitreous injection was performed with 30-gauge beveled needle attached to PE10 polyethylene tubing and a 10 μl syringe (Hamilton, Reno, Nev.). The injections were performed through the sclera, approximately 1 mm behind the limbus. The needle remained in the vitreous cavity for 30 seconds after injection then gently withdrawn. Control groups were injected with 1 μl PBS, 1 μl control peptide (1 μg/μl), or blank nanospheres (0.1 mg/μl). […] Vetropolycin® ointment was applied to the injected eyes and animals were allowed to recover for 48 hours or 7 days before sacrifice.
Preparation of retinal tissue: at designated time points, mice were sacrificed by carbon dioxide inhalation followed by, in some cases, cervical dislocation. The eyes were enucleated, fixed in 4% paraformaldehyde for 24 hours, washed with PBS and embedded in paraffin. Five (5) μm thick sections that included the optic nerve were collected. Sections were processed for TUNEL, immunocytochemistry, or histochemical staining with hematoxylin and eosin (Surgipath, Ltd, Richmond, Ill.) using standard methods.
Morphologic and Morphometric Analysis: For each eye, three sections, which included the optic disk and were spaced at least 20 μm apart, were used for morphological analysis. The fields analyzed were 4×250 μm zones sampled from all retinal eccentricities. These zones were 500 μm away from the edge of optic disk or the ora serrata. The average measurement of these 4 zones was used for statistical analysis. The mean thickness of inner nuclear layer (INL) and inner plexiform layer (IPL) was measured using Axiovision3.1 software (Carl Zeiss MicroImaging, Inc., Thornwood, N.Y.). Total surviving cells in the retinal ganglion cell layer at the same locations were counted using light microscopy.
Statistical analysis: Twelve fields per retina were analyzed for each treatment, and a total of 72 fields were used. For statistical analysis, one-way analysis of variance (ANOVA) and Fisher tests were performed; p<0.05 was taken as significant. Data are presented as means and standard deviations.

[5] = 48 hours after ischemia reperfusion

## PEDF82-121: residues 82 to 121 of human PEDF, PLSVATALSALSLGAEQRTESIIHRALYYDLISSPDIHGT (SEQ ID NO: 3) ((1)..(40) Residues 82-121 of human PEDF; listed as Homo sapiens)
[1]
  presence of phosphorylated Erk: strongly detected at 48 hours
[2]; 48 hours after transient ischemia
  GFAP labeling compared to PBS injections: less GFAP labeling
[2]; 7 days after injury
  GFAP staining: very similar staining
[3]
  presence of phosphorylated STAT3: also detected at 48 hours
[4]; [5]
  surviving cells in the RGC layer compared with non-ischemia control: 80.1%
  thickness of the INL compared with non-ischemia control: 100%
  thickness of the IPL compared with non-ischemia control: 100%
[4]; 48 hours post ischemia, versus PBS or PEDF136-155
  protection of the retinal ganglion cell layer (in words): substantial protection
[4]; 7 days after injury
  surviving cells in the RGC layer compared with non-ischemia control: 56.8%
  thickness of the INL compared with non-ischemia control: 72.8%
  thickness of the IPL compared with non-ischemia control: 62.7%
[4]; 7 days post ischemia, free single bolus or nanospheres
  protection of the retinal ganglion cell layer (in words): less
[4]; compared to PBS injected controls, time not stated
  IPL thickness after ischemic injury (in words): maintained the thickness of the IPL
